{"source": "patent US20250154525A1", "about": "“PLANT VIRUS MOVEMENT PROTEINS AND METHODS OF USING SAME” (Molecular Transfer, Inc., priority 2016, published 2025)", "key": {"[1]": {"test_system": "HeLa Cells", "experiment": "GFP plasmid transfection with DOTMA/DOPE plus surface ligand peptide, fluorescent plate reader (Example 1)", "assay_type": "cell-based", "conditions": "DOTMA/DOPE + peptide linked to R12 or K16; EF1Alpha eGFP plasmid; 42 hours", "protocol": "(§1) Cells were plated to so that on the day of transfection the cells were 70% confluent in 96 well tissue culture plates. A DOMTA/DOPE Lipid solution (1:1 molar ratio) at 2 mg/mL in water were mixed with an equal volume cell surface ligand containing adhesion peptide, the plant virus movement protein, or peptide derived therefrom, that had the nucleic acid binding moiety RRRRRRRRRRRR (SEQ ID NO:109) or KKKKKKKKKKKKKKKK (SEQ ID NO: 102) covalently linked to the N-terminus, or C-terminus of each peptide during peptide synthesis. Peptides were at 2 mg/mL in water. The DOTMA/DOPE and the solution containing the cell surface ligand containing adhesion peptide, the plant virus movement protein, or peptide derived therefrom, surface ligand peptide the was diluted 1 to 1 (v/v) in water. DOMTA/DOPE/PEPTIDE solutions were added to 0.1 mL of a plasmid DNA solution (EF1Alpha eGFP plasmid) at 10 μg/mL in OptiMEM.\n(§2) All solutions were at room temperature. A volume of 0.2 mL of a 10 μg/mL solution of DNA was aliquoted into each well of a non-tissue cultured treated plate. 1-12 μL of transfection reagents were added to DNA solutions respectively. The transfection reagent and DNA solution was mixed by pipetting up and down twice. Transfection complexes were formed for 10 minutes. After 10 minutes, 0.01 or 0.02 mL of the transfection complex was added to cells. HuVEC, HeLa, human adult keratinocytes, human primary adult fibroblast, and A549 cells all respectively received 0.01 mL of the transfection complex. Human skeletal muscle cells, mouse C2C12 cells, and Jurkat, cells received 0.02 mL of the transfection complex. Cells were incubated for 42 hours at 37° C. at 5% CO2. Plates were read on a fluorescent plate reader. Cells were also examined visually under a microscope to assess the extent of transfection (in terms of the percent of cells transfected) with a fluorescent microscope. Other modes of analysis, for example quantification with B-galactocidase or luciferase reports plasmids can also be used.\n(§3) Surface ligand that caused increase expression of GFP over the lipid DOTMA with no surface ligand were considered to enhance transfection or had higher % cells transfected were considered to enhance transfection. Peptides that gave greater than 2-fold enhancement are noted in bold and could be further optimized by adding different transfection enhancers or could be used with different cationic lipids or polymers.\n(§4) Tables 2-7, below, provide the results of the transfection enhancements with the various cell types, while Table 8 lists the peptides that were determined by visual inspection to enhance the transfection of the denoted cell lines over the lipid DOTMA."}, "[2]": {"test_system": "NL-1 iPS Cells", "experiment": "GFP plasmid transfection with DOTMA/DOPE plus surface ligand peptide, fluorescent plate reader (Example 1)", "assay_type": "cell-based", "conditions": "DOTMA/DOPE + peptide linked to R12 or K16; EF1Alpha eGFP plasmid; 42 hours", "protocol": "as §1, §2, §3, §4"}, "[3]": {"test_system": "Human Fibroblast Cells", "experiment": "GFP plasmid transfection with DOTMA/DOPE plus surface ligand peptide, fluorescent plate reader (Example 1)", "assay_type": "cell-based", "conditions": "DOTMA/DOPE + peptide linked to R12 or K16; EF1Alpha eGFP plasmid; 42 hours", "protocol": "as §1, §2, §3, §4"}, "[4]": {"test_system": "Jurkat Cells", "experiment": "GFP plasmid transfection with DOTMA/DOPE plus surface ligand peptide, fluorescent plate reader (Example 1)", "assay_type": "cell-based", "conditions": "DOTMA/DOPE + peptide linked to R12 or K16; EF1Alpha eGFP plasmid; 42 hours", "protocol": "as §1, §2, §3, §4"}, "[5]": {"test_system": "HuVec Cells", "experiment": "GFP plasmid transfection with DOTMA/DOPE plus surface ligand peptide, fluorescent plate reader (Example 1)", "assay_type": "cell-based", "conditions": "DOTMA/DOPE + peptide linked to R12 or K16; EF1Alpha eGFP plasmid; 42 hours", "protocol": "as §1, §2, §3, §4"}, "[6]": {"test_system": "C2C12 Cells", "experiment": "GFP plasmid transfection with DOTMA/DOPE plus surface ligand peptide, fluorescent plate reader (Example 1)", "assay_type": "cell-based, mouse", "conditions": "DOTMA/DOPE + peptide linked to R12 or K16; EF1Alpha eGFP plasmid; 42 hours", "protocol": "as §1, §2, §3, §4"}, "[7]": {"test_system": "some examined cell types", "experiment": "Summary of Example 1: transfection expression and % cells transfected over the no peptide control", "assay_type": "cell-based", "conditions": "on some examined cell types", "protocol": "as §1, §2, §3"}, "[8]": {"test_system": "HeLa Cells", "experiment": "GFP transfection with DOTMA/SEQ ID NO: 72 (fusogenic peptide)/peptide compared with Lipofectamine 2000", "assay_type": "cell-based", "protocol": "as §1, §2\nThe fusogenic peptide was added to the DOMTA/peptide formulation to achieve a final concentration of 0.1 mg/mL to see if transfection reagents were further enhanced by the addition of a fusogenic peptide and could provide higher transfection efficiency into HeLa cells and expression than the commercially available Lipofectamine 2000."}}, "note": "“And” between values parts separate entries of the source, which are not always exact repeats. Equal values may be shown once."}
{"substance": "229 (PPFLMLLKGSTR) [compound 229]", "values": [{"measurement": "Relative Fluorescence of Transfection of HeLa Cells (RF)", "setting": "[1]", "value": 8816}, {"measurement": "Relative Fluorescence of Transfection of NL-1 iPS Cells (RF)", "setting": "[2]", "value": 13491}, {"measurement": "Relative Fluorescence of Transfection of Human Fibroblast Cells (RF)", "setting": "[3]", "value": 6811}, {"measurement": "Relative Fluorescence of Transfection of Jurkat Cells (RF)", "setting": "[4]", "value": 8079}, {"measurement": "Relative Fluorescence of Transfection of HuVec Cells (RF)", "setting": "[5]", "value": 5452}, {"measurement": "Relative Fluorescence of Transfection of C2C12 Cells (RF)", "setting": "[6]", "value": 1164}, {"measurement": "transfection expression and % cells transfected over the no peptide control", "setting": "[7]", "value": "increased transfection expression and the % cells transfected"}]}
{"substance": "234 (YEKPGSPPREVVPRPRPGV) [compound 234]", "values": [{"measurement": "Relative Fluorescence of Transfection of HeLa Cells (RF)", "setting": "[1]", "value": 3867}, {"measurement": "Relative Fluorescence of Transfection of NL-1 iPS Cells (RF)", "setting": "[2]", "value": 14410}, {"measurement": "Relative Fluorescence of Transfection of Human Fibroblast Cells (RF)", "setting": "[3]", "value": 4145}, {"measurement": "Relative Fluorescence of Transfection of Jurkat Cells (RF)", "setting": "[4]", "value": 5441}, {"measurement": "Relative Fluorescence of Transfection of HuVec Cells (RF)", "setting": "[5]", "value": 13956}, {"measurement": "Relative Fluorescence of Transfection of C2C12 Cells (RF)", "setting": "[6]", "value": 681}]}
{"substance": "236 (KNNQKSEPLIGRKKT) [compound 236]", "values": [{"measurement": "Relative Fluorescence of Transfection of HeLa Cells (RF)", "setting": "[1]", "value": "7202 and 5042"}, {"measurement": "Relative Fluorescence of Transfection of NL-1 iPS Cells (RF)", "setting": "[2]", "value": "43542 and 22256"}, {"measurement": "Relative Fluorescence of Transfection of Human Fibroblast Cells (RF)", "setting": "[3]", "value": "3630 and 3000"}, {"measurement": "Relative Fluorescence of Transfection of HuVec Cells (RF)", "setting": "[5]", "value": 14418}, {"measurement": "Relative Fluorescence DOTMA/SEQ ID NO: 72/Peptide, HeLa Cells (RF)", "setting": "[8]; 0.1 μL of DOTMA/SEQ ID NO: 72/Peptide in well of a 96 well plate", "value": 5993}, {"measurement": "Relative Fluorescence DOTMA/SEQ ID NO: 72/Peptide, HeLa Cells (RF)", "setting": "[8]; 0.2 μL of DOTMA/SEQ ID NO: 72/Peptide in well of a 96 well plate", "value": 8846}, {"measurement": "Relative Fluorescence DOTMA/SEQ ID NO: 72/Peptide, HeLa Cells (RF)", "setting": "[8]; 0.3 μL of DOTMA/SEQ ID NO: 72/Peptide in well of a 96 well plate", "value": 8492}, {"measurement": "Relative Fluorescence DOTMA/SEQ ID NO: 72/Peptide, HeLa Cells (RF)", "setting": "[8]; 0.4 μL of DOTMA/SEQ ID NO: 72/Peptide in well of a 96 well plate", "value": 7316}, {"measurement": "transfection expression and % cells transfected over the no peptide control", "setting": "[7]", "value": "increased transfection expression and the % cells transfected"}]}
{"substance": "371 (GPAGKDGEAGAQG) [compound 371]", "values": [{"measurement": "Relative Fluorescence of Transfection of HeLa Cells (RF)", "setting": "[1]", "value": 5180}, {"measurement": "Relative Fluorescence of Transfection of NL-1 iPS Cells (RF)", "setting": "[2]", "value": 17587}, {"measurement": "Relative Fluorescence of Transfection of Human Fibroblast Cells (RF)", "setting": "[3]", "value": 4584}, {"measurement": "Relative Fluorescence of Transfection of Jurkat Cells (RF)", "setting": "[4]", "value": 6093}, {"measurement": "Relative Fluorescence of Transfection of HuVec Cells (RF)", "setting": "[5]", "value": 10669}, {"measurement": "Relative Fluorescence of Transfection of C2C12 Cells (RF)", "setting": "[6]", "value": 983}]}
{"substance": "349 (RNIAEIIKDI) [compound 349]", "values": [{"measurement": "Relative Fluorescence of Transfection of HeLa Cells (RF)", "setting": "[1]", "value": 4433}, {"measurement": "Relative Fluorescence of Transfection of NL-1 iPS Cells (RF)", "setting": "[2]", "value": 33103}, {"measurement": "Relative Fluorescence of Transfection of Human Fibroblast Cells (RF)", "setting": "[3]", "value": 8810}, {"measurement": "Relative Fluorescence of Transfection of Jurkat Cells (RF)", "setting": "[4]", "value": 23167}, {"measurement": "Relative Fluorescence of Transfection of HuVec Cells (RF)", "setting": "[5]", "value": 22907}, {"measurement": "transfection expression and % cells transfected over the no peptide control", "setting": "[7]", "value": "increased transfection expression and the % cells transfected"}]}
{"substance": "338 (GTPGPQGIA) [compound 338]", "values": [{"measurement": "Relative Fluorescence of Transfection of HeLa Cells (RF)", "setting": "[1]", "value": 6241}, {"measurement": "Relative Fluorescence of Transfection of NL-1 iPS Cells (RF)", "setting": "[2]", "value": 17288}, {"measurement": "Relative Fluorescence of Transfection of Human Fibroblast Cells (RF)", "setting": "[3]", "value": 5625}, {"measurement": "Relative Fluorescence of Transfection of Jurkat Cells (RF)", "setting": "[4]", "value": 4475}, {"measurement": "Relative Fluorescence of Transfection of HuVec Cells (RF)", "setting": "[5]", "value": 12000}, {"measurement": "Relative Fluorescence of Transfection of C2C12 Cells (RF)", "setting": "[6]", "value": 2290}, {"measurement": "transfection expression and % cells transfected over the no peptide control", "setting": "[7]", "value": "increased transfection expression and the % cells transfected"}]}
{"substance": "107 (RRRRRRRR) [compound 107]", "values": [{"measurement": "Relative Fluorescence of Transfection of HeLa Cells (RF)", "setting": "[1]", "value": 75}, {"measurement": "Relative Fluorescence of Transfection of NL-1 iPS Cells (RF)", "setting": "[2]", "value": 1441}]}
{"substance": "352 (RIQNLLKITNLRIKFVK) [compound 352]", "values": [{"measurement": "Relative Fluorescence of Transfection of HeLa Cells (RF)", "setting": "[1]", "value": 32126}, {"measurement": "Relative Fluorescence of Transfection of NL-1 iPS Cells (RF)", "setting": "[2]", "value": 11628}, {"measurement": "Relative Fluorescence of Transfection of Human Fibroblast Cells (RF)", "setting": "[3]", "value": 3059}, {"measurement": "Relative Fluorescence of Transfection of Jurkat Cells (RF)", "setting": "[4]", "value": 3150}, {"measurement": "Relative Fluorescence of Transfection of HuVec Cells (RF)", "setting": "[5]", "value": 3130}, {"measurement": "Relative Fluorescence of Transfection of C2C12 Cells (RF)", "setting": "[6]", "value": 3324}, {"measurement": "transfection expression and % cells transfected over the no peptide control", "setting": "[7]", "value": "increased transfection expression and the % cells transfected"}]}
{"substance": "224 (KPDVRSYTITG) [compound 224]", "values": [{"measurement": "Relative Fluorescence of Transfection of HeLa Cells (RF)", "setting": "[1]", "value": 5559}, {"measurement": "Relative Fluorescence of Transfection of NL-1 iPS Cells (RF)", "setting": "[2]", "value": 25209}, {"measurement": "Relative Fluorescence of Transfection of Human Fibroblast Cells (RF)", "setting": "[3]", "value": 5995}, {"measurement": "Relative Fluorescence of Transfection of Jurkat Cells (RF)", "setting": "[4]", "value": 13170}, {"measurement": "Relative Fluorescence of Transfection of HuVec Cells (RF)", "setting": "[5]", "value": 15945}, {"measurement": "Relative Fluorescence of Transfection of C2C12 Cells (RF)", "setting": "[6]", "value": 1469}]}
